2 compounds from publication PMC11503492, “Activity-Based DNA-Encoded Library Screening for Selective Inhibitors of Eukaryotic Translation” (ACS Central Science, 2024) can be followed below.

Each structure is given as a SMILES string. “Also recorded” adds a separate entry of the source.

Test [1] deals with RPL27[1:32]-GFP translation. Description: WG IVTT activity assay, RPL27[1:32]-GFP template. Type of test: biochemical, wheat germ. From the text: A commercially available wheat germ lysate (WG) IVTT system was employed to assay translation inhibition. Translation activity was detected via a GFP reporter, and the assay was miniaturized to picoliter-scale microfluidic droplets (Figure 1A,B). […] PCSK9 and RPL27 were truncated to the first 33 and 32 amino acids, respectively (PCSK9[1:33] and RPL27[1:32]). The sequences contain distinct PF846 stall sites and were both fused to a GFP reporter. The GFP reporter and a frameshift mutant of PCSK9[1:33] (PCSK9-FS[1:33]), which mutates the nascent chain sequence while maintaining a nearly identical mRNA sequence, were included as negative controls.[13] […] The WG IVTT assay was miniaturized using a previously described microfluidic circuit modified for longer incubation times (Figure S1)[27] using PF846 as a positive control compound, and assay statistical quality was calculated (Z′=0.7) (Figure 1E). […] Assay statistical quality using PC-HygB positive control beads was similarly calculated (Z′ = 0.75, Figure 1H). […]
429 of encoding region identifiers was then determined using a UMI aggregation algorithm; […]
433 manually determined threshold (10) were discarded. […]
(§1) 440 progress was immediately monitored (λex = 480 nm, λem = 530 nm, 27 °C, 2 h). […]
(§2) 441 tive activity was calculated using the slope of fluorescence increase over time (at 15–30 […]
Figure S11. […] Compound 8 (black) and PF846 (gray) were analyzed […]

A further test relates to HeLa-derived IVTT. Kind of test: HeLa lysate IVTT microplate activity assay. Type of test: biochemical, human. The note with it: dose-response.
Source text: 421 region sequences were matched to an alpha numeric DNA region identifier (11xx, 22xx,
422 13xx, 24xx, 15xx, 26xx, respectively), while allowing a 1-bp mutation per encoding region.
423 No insertions or deletions were tolerated.
424 match a known encoding region identifier at all six encoding positions (2) contained a
425 single point mutation in more than 4 of the DNA encoding regions (3) contained a UMI
427 presented in the library or positive control designs or (5) contained a minimum Phred
428 quality score less than 20. A sum of UMI counts for all remaining unique combinations
429 of encoding region identifiers was then determined using a UMI aggregation algorithm;
430 1 bp mutations were considered the same UMI. Encoding region identifiers were then
431 converted to library BB identifiers per the library design with an associated UMI count.
432 Any encoding region/ bead-specific barcode combinations with a UMI count below a
433 manually determined threshold (10) were discarded. The remaining ”valid beads” were […]
as §1, §2
449 immediately monitored (λex = 480 nm, λem = 530 nm, 27 °C, 2 h). […]
450 culated using the slope of fluorescence increase over time (15–30 min post reaction initia- […]

Test [2] relates to PCSK9[1:33]-GFP in vitro transcription. Description: PCSK9[1:33]-GFP T7 in vitro transcription reaction, agarose gel. The format is biochemical. The note with it: PCSK9[1:33]-GFP T7 transcription, 1.5% agarose gel. As for the experimental part: Figure S10. Activity of compounds 8 and 9 on transcription. (A) Screening hits 8 and 9 were analyzed in dose-response IVTT activity assays of PCSK9[1:33]-GFP initiated with DNA (black) and RNA (gray) template. (B) Products of PCSK9[1:33]-GFP T7 transcription reactions incubated with DMSO, screening hits 8 and 9, or PF846 were visualized on a 1.5% agarose gel
(1 picture or pasted object on this page, not shown here)

As for `Cc1cccc2ccnc(N(C(=O)[C@H]3CCCN(C(=O)c4cccc5c(C#N)c[nH]c45)C3)[C@@H]3CCCNC3)c12` [Compound 8], the “activity on RPL27[1:32]-GFP translation (in words)” value in test [1] is listed as “most active”. Besides, in the test on HeLa-derived IVTT, the “activity in HeLa-derived (human) IVTT (in words)” value is on record as “active”.
With `Cc1cccc2ccnc(N(C(=O)C3CCN(C(=O)c4cccc5c(C#N)c[nH]c45)CC3)[C@@H]3CCCNC3)c12` [Compound 9], the “activity in HeLa-derived (human) IVTT (in words)” value in the test on HeLa-derived IVTT is listed as “active”. Also, in test [2], the “effect on in vitro transcription product (in words)” value was “no visible transcript product; also recorded: completely eliminates RNA yield; also recorded: nonselectively inhibits transcription”.
